From US20230138400A1, “METHODS AND PHARMACEUTICAL COMPOSITIONS FOR REPROGRAMING IMMUNE ENVIRONMENT IN A SUBJECT IN NEED THEREOF” (INSERM (INSTITUT NATIONAL DE LA SANTE ET DE LA RECHERCHE …, priority 2016, published 2023)

Assays:
B16F10 cells = test: Multivesicular bodies and exosome secretion of B16F10 cells treated with DDA; format: cell-based, mouse
SKMEL-28 cells = test: Composition of exosomes from SKMEL-28 cells (shCTRL or shLXRbeta) treated with DDA; format: cell-based, human
Protocol: Exosome characterization. By flow cytometry: (tetraspanin analysis), exosomes (10 μg) were bound onto 10 μl of latex beads (Interfacial Dynamics/Invitrogen) in 200 μl PBS for 1 hour at 25° C. with gentle periodical shaking. Free sites on latex beads were saturated with 100 μl vesicle-free FBS for 30 min at 25° C. Beads with bound exosomes were centrifuged for 5 min at 5000 rpm, washed in 200 μl PBS, and diluted in 100 μl FACS buffer. Specific primary antibody or control isotype (1:50) were added and incubated at room temperature for 30 min. After centrifugation and washing, secondary antibody (1:100) was added and incubated for 30 min at room temperature. Beads with bound antibody-labelled exosomes were diluted in 1 ml FACS buffer and analyzed by flow cytometry (FACScalibur, Becton-Dickinson). By western-blot analysis: 5-20 μg exosomes were directly diluted in sample buffer and denaturated by heating at 60° C. for 10 min. Equal amounts of proteins were deposited in each well and proteins were resolved in SDS-PAGE and transferred onto PVDF membranes, saturated with 5% w/v non-fat milk in TBS-Tween 0.1%. […] Revelation from immunoblotting was performed by enhanced chemiluminescence and analysed by ChemiDoc imager (BioRad) or by Pxi imager (Ozyme). By sucrose gradient: the density of exosomes was measured through a sucrose gradient. […]

E0771 tumor = test: Infiltration of immune cells inside E0771 tumor, flow cytometry; format: in vivo, mouse; conditions: 0.37 μg/kg DDA, day 15 post treatment
Excerpt: FIGS. 5A-D. Infiltration of immune cells inside E0771 tumor. (A-D) These bar graphs represent the ratio between (A) Th1 (CD4+ Tbet+) and Treg (CD4+ Foxp3+), (B) CTL cells (CD8+ Granzym B+) on No CTL cells (CD8+ Granzym b−), (C) macrophage type M1 (CD14+ CCR7+ IFNg+) and type M2 (CD14+ CD206+ IL10+) (D) dendritic cells (CD11c+) and myeloid derived suppressive cells (MDSC: CD11b+CD11clow, LY6C+ly6Gint) infiltrated inside the tumor. The tumors were removed at day 15 post treatment with DDA at 0.37 μg/kg (b) or with the solvent vehicle (control) (a). To observe the cytotoxic CD8 T cells, the tumor suspension was prealably stimulated 2 h in vitro with a cocktail of PMA (50 ng/ml), ionomycine (500 ng/ml) and golgistop (concentration from manufacture BD Pharmagen), then the cells were stained with specific antibodies.
Tumor dissociation: Freshly excised tumors were trimmed of skin, fat, and necrotic tissue and minced in cold Hanks' medium. The minced tumor pieces were placed in an enzyme solution consisting of collagenase type D at 1 mg/ml and DNase type 1 at 20 μg/ml in Hanks' medium at 37° C. After 30 min of dissociation, the cell suspension was collected, washed with Hank's medium, and then suspended in PBS 1×, 0.5% BSA, 0.02% azide and […] EDTA (Facs medium).
Analysis of immune cells by flow cytometry. Immune cells from the tumors were stained with the indicated fluorescent-labelled antibodies: anti mouse α-CD4, α-CD8, α-T-bet, α-Foxp3, α-granzyme B, α-PD-1, α-CD44, α-Ly6C, α-Ly6G, α-CD11b, α-CD11c, α-CD206, α-CD86, α-IL10, α-IL-6, α-IL-4 purchased from eBioscience or Biolegend. Intracellular staining for T-bet, Foxp3, IFNg, Granzyme B, IL-10, IL-4 and IL-6 was performed according the manufacturer's protocol from Biolegend. To observe the cytotoxic CD8 T cells, the tumor suspension was prealably stimulated 2 h in vitro with a cocktail of PMA (50 ng/ml), ionomycine (500 ng/ml) and golgistop (concentration from manufacture BD Pharmingen), then the cells were stained with specific antibodies. To set the gates, flow cytometry dot plots were based on comparison with isotype control. Flow cytometry measurements of single-cells suspension were performed on a Fortessa 20X (BD pharmingen) and data were analyzed using FlowJo software.

E0771 tumors = test: E0771 tumor growth analysis in C57BL/6 mice treated with DDA; format: in vivo, mouse; conditions: 0.37 μg/kg or 20 mg/kg DDA IP every 5 days
Protocol: FIGS. 4A-C. Tumor growth analysis (A) Exponentially growing E0771 cells were collected, washed twice in PBS and resuspended in PBS (300,000 cells in 100 μl PBS). E0771 tumors were prepared by subcutaneous transplantation into the flanks of C57BL/6 mice. When tumor measured 50 mm3, the mice were treated every 5 days with 0.37 μg/kg or 20 mg/kg DDA or with the solvent vehicle (control).

CC(C)CCCC(C)[C@H]1CCC2C3C[C@@H](NCCc4cnc[nH]4)[C@@]4(O)C[C@@H](O)CC[C@]4(C)C3CC[C@@]21C (some centres unmarked) [DDA, 5a-hydroxy-6b-[2-(1H-imidazol-4-yl)ethylamino]cholestan-3b-ol]
production of exosome secreted into the media (B16F10 cells; data not shown): 1.5 to 2 fold | amount of multivesicular bodies (MVB) (B16F10 cells; electronic microscopy): stimulates | exosome content of rab27a and b, HSP70, Melan A, tyrosinase, TRP2, calreticuline (SKMEL-28 cells; exosomes from SKMEL-28-shCTRL cells): enriched | exosome content of rab27a and b, HSP70, Melan A, tyrosinase, TRP2, calreticuline (SKMEL-28 cells; exosomes from SKMEL-28-shLXRbeta cells): not enriched | infiltration into the tumor of inactivated CD8 (No CTL) (E0771 tumor): decreases | infiltration into the tumor of macrophage type M2 (E0771 tumor): decreases | infiltration into the tumor of myeloid derived suppressive cells (MDSC) (E0771 tumor): decreases | infiltration into the tumor of regulatory CD4 Treg cells (E0771 tumor): decreases | infiltration of CD4 Th1 cells inside the tumor (E0771 tumor): increases | infiltration of activated CD8 (CTL) inside the tumor (E0771 tumor): increases | infiltration of dendritic cells (DC: CD11c+) inside the tumor (E0771 tumor): increases | infiltration of macrophage type M1 inside the tumor (E0771 tumor): increases | mice survival (E0771 tumors): increases mice survival | tumor growth (E0771 tumors): inhibits tumor growth
